Measured values as given in article PMC2915899 (Journal of medicinal chemistry, 2010).

Columns and labels:
NadD = NadD inhibition, enzyme species not stated at the place; format: biochemical; details: 1_02_1 compared with 1_13 and 1_15 (Fig. 4A)
baNadD = baNadD (Bacillus anthracis, UniProt C3L5T6); format: biochemical
Chain of baNadD (C3L5T6 whole entry, looked up): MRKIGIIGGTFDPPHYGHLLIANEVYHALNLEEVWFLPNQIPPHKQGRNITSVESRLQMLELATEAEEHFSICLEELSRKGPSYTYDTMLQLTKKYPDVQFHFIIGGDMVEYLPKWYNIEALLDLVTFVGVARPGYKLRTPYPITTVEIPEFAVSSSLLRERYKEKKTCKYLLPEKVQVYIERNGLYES

Compound	improvement in activity over monomeric precursors 1_13 and 1_15 (NadD)	inhibition of baNadD (baNadD)
O=C(CCC(=O)Nc1ccccc1Cl)N/N=C/c1ccc(/C=N/NC(=O)CCC(=O)Nc2ccccc2Cl)cc1 [Compound 1_02_1, N-(2-Chloro-phenyl)-3-(4-{[3-(2-chloro-phenylcarbamoyl)-propionyl]-hydrazonomethyl}-benzylidene-hydrazinocarbonyl)-propionamide]	more than 10 fold	
{N'-(4-{Carboxymethyl-[3-(2-chloro-phenylcarbamoyl)-propionyl]-hydrazonomethyl}-benzylidene)-N-[3-(2-chloro-phenylcarbamoyl)-propionyl]-hydrazino}-acetic acid [Compound 1_02_2]		did not inhibit
